Data on five compounds can be found in paper PMC4642525, “Conjugates of γ-Carbolines and Phenothiazine as new selective inhibitors of butyrylcholinesterase and blockers of NMDA receptors for Alzheimer Disease” (Scientific Reports, 2015).

Some results are limits rather than exact numbers.

Experiment [1] deals with T1, ifenprodil binding site of NMDA receptor (NR2B subunit containing) (Rattus norvegicus, UniProt P35439+Q00960).
T1 construct: A membrane preparation of hippocampus for radioligand analysis was prepared; from tissue; host or cells: rat hippocampal membranes
T1 sequence (Q00960 27-1482, other chains not shown): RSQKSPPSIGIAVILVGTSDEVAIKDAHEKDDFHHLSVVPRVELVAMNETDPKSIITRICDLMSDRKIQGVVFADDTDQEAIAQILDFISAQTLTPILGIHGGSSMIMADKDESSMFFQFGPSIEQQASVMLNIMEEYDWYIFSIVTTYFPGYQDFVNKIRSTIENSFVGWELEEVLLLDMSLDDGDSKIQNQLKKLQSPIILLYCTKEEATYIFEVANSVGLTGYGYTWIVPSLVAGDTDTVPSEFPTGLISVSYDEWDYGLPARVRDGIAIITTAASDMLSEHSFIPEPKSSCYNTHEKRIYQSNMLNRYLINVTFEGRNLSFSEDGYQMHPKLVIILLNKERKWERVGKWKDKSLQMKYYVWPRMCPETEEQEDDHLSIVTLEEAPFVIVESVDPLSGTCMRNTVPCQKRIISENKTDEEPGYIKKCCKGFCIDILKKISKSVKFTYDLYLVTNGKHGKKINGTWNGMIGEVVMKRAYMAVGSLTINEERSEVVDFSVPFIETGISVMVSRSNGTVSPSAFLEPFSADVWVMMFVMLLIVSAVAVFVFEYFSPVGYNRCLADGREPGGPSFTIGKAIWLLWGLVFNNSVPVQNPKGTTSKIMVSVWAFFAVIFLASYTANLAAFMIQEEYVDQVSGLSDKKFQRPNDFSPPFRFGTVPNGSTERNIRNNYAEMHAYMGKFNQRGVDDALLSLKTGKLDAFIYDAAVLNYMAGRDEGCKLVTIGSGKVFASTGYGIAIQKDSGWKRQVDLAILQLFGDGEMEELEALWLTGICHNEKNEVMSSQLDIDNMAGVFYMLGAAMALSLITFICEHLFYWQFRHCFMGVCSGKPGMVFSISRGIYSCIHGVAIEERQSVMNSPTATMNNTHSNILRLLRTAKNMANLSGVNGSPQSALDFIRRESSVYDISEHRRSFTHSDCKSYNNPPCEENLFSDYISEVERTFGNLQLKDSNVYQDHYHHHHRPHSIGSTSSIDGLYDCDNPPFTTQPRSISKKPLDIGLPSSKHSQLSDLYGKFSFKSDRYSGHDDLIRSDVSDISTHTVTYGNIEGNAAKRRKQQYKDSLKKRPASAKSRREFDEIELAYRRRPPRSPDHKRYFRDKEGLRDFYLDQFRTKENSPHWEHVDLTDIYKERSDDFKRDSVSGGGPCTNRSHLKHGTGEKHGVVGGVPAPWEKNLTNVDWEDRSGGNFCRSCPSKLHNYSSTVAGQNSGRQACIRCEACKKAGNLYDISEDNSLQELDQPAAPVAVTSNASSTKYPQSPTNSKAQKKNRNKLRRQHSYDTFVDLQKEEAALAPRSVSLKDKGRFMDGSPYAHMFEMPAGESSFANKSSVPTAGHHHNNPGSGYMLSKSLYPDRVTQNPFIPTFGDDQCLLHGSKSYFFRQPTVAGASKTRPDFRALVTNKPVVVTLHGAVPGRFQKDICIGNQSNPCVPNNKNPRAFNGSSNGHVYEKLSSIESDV
The experiment in a line: Radioligand binding, [3H]ifenprodil site of NMDA receptor, hippocampal membranes. To be noted: rat hippocampal membranes; for % of [3H]ifenprodil blockade at 100 μM of compound: 100 μM compound; for IC50: read-out: [3H]ifenprodil, IC50. The method, then: (§1) Effect of test compounds on the radioligand binding to NMDA receptors was determined by using a modified method as reported earlier by Zhou L-M and coworkers. Two radioactive ligands were used: [^3H] MK-801 (dizocilpine) with a specific activity of 210 Ci/mmol binding to all isolated NMDA receptors, and [^3H] ifenprodil with a specific activity of 79 Ci/mmol binding only to NMDA receptors containing the NR2B subunit.
(§2) A membrane preparation of hippocampus for radioligand analysis was prepared by the techniques described previously. The obtained membrane pellet was resuspended in a work buffer (5 mM HEPES/4.5 mM Tris buffer, pH 7.6) in a ratio of 1:5, and stored in liquid nitrogen. The reaction mixture (the final volume of 0.5 ml) contained 200 μl of the working buffer, 50 μl of 50 nM radioligand solution and 250 μl of the membrane suspension. Nonspecific binding was determined in the presence of 50 μl of […] of unlabeled ligand.
(§3) For binding study, the reaction mixture was incubated at room temperature for 2 hours. After incubation, the samples were filtered through the glass-fiber filters GF/B (Whatman), washed with the work buffer, dried and transferred to scintillation vials to which 5 ml of scintillation fluid was added containing 4g diphenyl oxazole (PPO), 0.2g diphenyloxazoil benzene (POPOP) and 1 liter of toluene. Radioactivity was determined in the scintillation counter TriCarb2800 TR (PerkinElmer, Packard, USA) with counting efficiency of about 65%.
(§4) Investigation of the effect of the tested compounds on the binding of [^3H]

For experiment [2], the target named is T2, butyrylcholinesterase (BChE, EC 3.1.1.8, from equine serum) (Equus caballus, UniProt P81908).
T2 construct: butyrylcholinesterase (BChE, EC 3.1.1.8, from equine serum); purchased Sigma-Aldrich (Germany); host or cells: equine serum
T2 sequence (P81908 whole entry): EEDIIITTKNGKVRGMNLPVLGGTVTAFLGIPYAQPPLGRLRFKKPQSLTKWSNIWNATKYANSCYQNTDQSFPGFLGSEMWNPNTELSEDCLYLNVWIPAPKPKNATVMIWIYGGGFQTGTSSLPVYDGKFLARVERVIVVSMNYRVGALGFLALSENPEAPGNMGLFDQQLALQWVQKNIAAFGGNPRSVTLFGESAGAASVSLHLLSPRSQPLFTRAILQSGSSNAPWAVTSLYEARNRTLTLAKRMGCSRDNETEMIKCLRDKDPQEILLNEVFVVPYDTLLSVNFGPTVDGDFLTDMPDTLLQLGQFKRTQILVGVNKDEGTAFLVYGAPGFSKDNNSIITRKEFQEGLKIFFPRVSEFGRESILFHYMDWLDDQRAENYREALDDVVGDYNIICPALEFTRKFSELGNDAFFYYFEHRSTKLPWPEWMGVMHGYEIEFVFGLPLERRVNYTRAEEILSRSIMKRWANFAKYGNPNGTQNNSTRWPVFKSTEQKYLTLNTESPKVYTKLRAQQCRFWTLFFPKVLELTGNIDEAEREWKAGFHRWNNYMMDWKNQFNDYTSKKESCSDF
Description: biochemical. The settings on record: for αKi (non-competitive inhibition constant) / Ki: BChE, means ± SEM, at least three experiments; for Ki: read-out: Ki (competitive inhibition constant). It counts as biochemical. The procedure: The test compounds were preincubated with the enzymes at 25 °C for 10 min, followed by the addition of the substrates. Parallel controls were made for an assay of the rate of hydrolysis of the same concentrations of substrates in the solutions with no inhibitor. The kinetic parameters of substrate hydrolysis were determined. Measurements were performed in a BioRad Benchmark Plus microplate spectrophotometer (France). Each experiment was performed in triplicate.

The target of experiment [3] is T3, carboxylesterase (CaE, EC 3.1.1.1, from porcine liver) (Sus scrofa, UniProt Q29550).
T3 sequence (Q29550 19-566): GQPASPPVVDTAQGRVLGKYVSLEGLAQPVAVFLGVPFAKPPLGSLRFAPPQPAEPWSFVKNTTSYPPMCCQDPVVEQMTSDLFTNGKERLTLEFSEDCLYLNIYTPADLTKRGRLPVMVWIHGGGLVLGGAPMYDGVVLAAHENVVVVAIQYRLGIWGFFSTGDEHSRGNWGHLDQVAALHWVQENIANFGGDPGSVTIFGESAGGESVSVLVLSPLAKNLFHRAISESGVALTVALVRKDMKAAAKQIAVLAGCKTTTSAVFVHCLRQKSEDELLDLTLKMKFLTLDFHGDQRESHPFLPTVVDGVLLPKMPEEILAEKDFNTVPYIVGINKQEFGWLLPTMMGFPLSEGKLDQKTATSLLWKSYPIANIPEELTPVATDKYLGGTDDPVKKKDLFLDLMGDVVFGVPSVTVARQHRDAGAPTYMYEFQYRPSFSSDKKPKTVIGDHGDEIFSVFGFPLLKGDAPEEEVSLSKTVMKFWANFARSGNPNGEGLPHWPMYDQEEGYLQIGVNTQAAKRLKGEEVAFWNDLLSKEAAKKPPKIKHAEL
Description: In vitro CaE inhibition (4-nitrophenyl acetate hydrolysis). The experiment is classed as biochemical. The settings on record: pH 8.0, 25 °C, 10 min preincubation, read-out: IC50 (μM) ± SEM CaE. The method, then: (§5) Acetylcholinesterase (AChE, EC 3.1.1.7, from human erythrocyte), butyrylcholinesterase (BChE, EC 3.1.1.8, from equine serum), carboxylesterase (CaE, EC 3.1.1.1, from porcine liver), acetylthiocholine iodide (ATCh), butylthiocholine iodide (BTCh), 5,5´-dithiobis-(2-nitrobenzoic acid) (DTNB), 4-nitrophenyl acetate (4-NPA), were purchased from Sigma-Aldrich (Germany).
The activity of CaE was determined spectrophotometrically by the release of 4-nitrophenol at 405 nm[51]. The assay solution consisted of 0.1 M K/Na phosphate buffer pH 8.0, 25 °C with the addition of 1 mM 4-nitrophenyl acetate and 0.02 unit/mL of CaE. Assays were carried out with a blank containing all components except CaE.
(§6) The tested compounds were dissolved in DMSO; the incubation mixture contained 2% of the solvent. […] The test compounds were added to the assay solution and preincubated at 25 °C with the enzymes for 10 min followed by the addition of substrate. A parallel control was made for the assay solution with no inhibitor. Measurements were performed in a BioRad Benchmark Plus microplate spectrophotometer (France). Each experiment was performed in triplicate. The results were expressed as the mean ± SEM. The reaction rates in the presence and absence of inhibitor were compared, and the percent of residual enzyme activity due to the presence of test compounds was calculated.

For experiment [4], the target named is T4, МК-801 binding site of NMDA receptor (Rattus norvegicus, UniProt P35439).
T4 construct: A membrane preparation of hippocampus for radioligand analysis was prepared; from tissue; host or cells: rat hippocampal membranes
Description: Radioligand binding, [3H]MK-801 site of NMDA receptor, hippocampal membranes. To be noted: rat hippocampal membranes; for % of [3H]МК-801 blockade at 100 μM of compound: 100 μM compound; for IC50: read-out: [3H]МК-801, IC50. The method, then: as §1, §2, §3, §4

The target in experiment [5] is T5, Acetylcholinesterase (AChE, EC 3.1.1.7, from human erythrocyte) (Homo sapiens, UniProt P22303).
T5 construct: Acetylcholinesterase (AChE, EC 3.1.1.7, from human erythrocyte); purchased Sigma-Aldrich (Germany); host or cells: human erythrocytes
T5 sequence (P22303 other isoform, or with tags, fused parts or gaps): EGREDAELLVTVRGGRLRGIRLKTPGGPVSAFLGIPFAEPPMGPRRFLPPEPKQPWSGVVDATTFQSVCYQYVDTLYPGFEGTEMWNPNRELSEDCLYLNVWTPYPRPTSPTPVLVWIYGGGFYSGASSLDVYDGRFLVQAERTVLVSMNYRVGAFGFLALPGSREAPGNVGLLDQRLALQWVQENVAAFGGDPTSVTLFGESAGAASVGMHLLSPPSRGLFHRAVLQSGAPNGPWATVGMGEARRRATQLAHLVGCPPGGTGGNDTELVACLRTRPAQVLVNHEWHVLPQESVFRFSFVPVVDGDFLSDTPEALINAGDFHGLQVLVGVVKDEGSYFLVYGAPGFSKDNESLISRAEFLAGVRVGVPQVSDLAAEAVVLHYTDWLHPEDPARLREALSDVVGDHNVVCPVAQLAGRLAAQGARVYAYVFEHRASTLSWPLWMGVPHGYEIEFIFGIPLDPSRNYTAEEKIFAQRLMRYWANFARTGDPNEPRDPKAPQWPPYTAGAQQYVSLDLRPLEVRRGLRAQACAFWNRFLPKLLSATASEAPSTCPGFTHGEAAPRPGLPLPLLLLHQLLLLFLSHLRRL
The experiment in a line: biochemical. It counts as biochemical. The settings on record: human erythrocyte AChE; pH 7.5, 25 °C, 10 min preincubation; read-out: IC50 (μM) ± SEM AChE. The procedure: as §5
(§7) AChE and BChE activities were measured by the method of Ellman and coworkers as described earlier. The assay solution consisted of 0.1 M K/Na phosphate buffer pH 7.5, 25 °C with the addition of 0.33 mM DTNB, 0.02 unit/mL of AChE or BChE and 1 mM of substrate (ATCh or BTCh, respectively). Assays were carried out with a blank containing all components except ATCh and BTCh in order to account for non-enzymatic reaction.
as §6

In experiment [6] the target is T2, butyrylcholinesterase (BChE, EC 3.1.1.8, from equine serum). The experiment in a line: biochemical. It counts as biochemical. The settings on record: equine serum BChE; pH 7.5, 25 °C, 10 min preincubation; read-out: IC50 (μM) ± SEM BChE. The procedure: as §5, §7, §6

The IC50 is the concentration needed to halve the response being measured. The term Ki denotes a measure of affinity in units of concentration, obtained from inhibition or displacement. Take `CCN1CCc2c(c3ccccc3n2CCC(=O)N2c3ccccc3Sc3ccccc32)C1` [C-1e]: the “% of [3H]ifenprodil blockade at 100 μM of compound” value (“% of [3H]ifenprodil blockade” below) in experiment [1] was 69.4 ± 3.3%. Also, the IC50 is 13.4 ± 2.6 µM in experiment [1]; above 200 µM in experiment [3]; 14.6 ± 1.9 µM in experiment [4]; above 200 µM in experiment [5]; 0.52 ± 0.01 µM in experiment [6]. The “αKi (non-competitive inhibition constant)” value in experiment [2] was found to be 0.65 ± 0.07 µM. Besides, in experiment [2], the Ki was 0.26 ± 0.02 µM. The “% of [3H]МК-801 blockade at 100 μM of compound” value (“% of [3H]МК-801 blockade” for short) in experiment [4] is given as 76.1 ± 1.2%.
As to `CCc1ccc2c(c1)c1c(n2CCC(=O)N2c3ccccc3Sc3ccccc32)CCN(C)C1` [C-1g], the “% of [3H]ifenprodil blockade” value in experiment [1] was determined as 64.6 ± 5.2%. In addition, the IC50 in experiment [1] is 15.4 ± 3.9 µM; in experiment [3], above 200 µM; in experiment [4], 13.2 ± 2.2 µM; in experiment [5], above 100 µM; in experiment [6], 1.36 ± 0.06 µM. In addition, the “αKi (non-competitive inhibition constant)” value in experiment [2] is 0.99 ± 0.04 µM. The Ki in experiment [2] stood at 0.46 ± 0.02 µM. Besides, the “% of [3H]МК-801 blockade” value in experiment [4] is 89.4 ± 4.6%.
Turning to `CC(C)c1ccc2c(c1)c1c(n2CCC(=O)N2c3ccccc3Sc3ccccc32)CCN(C)C1` [C-1h], the IC50 in experiment [1] was 85.8 ± 7.2 µM; in experiment [3], 120 ± 13 µM; in experiment [4] it was 17.8 ± 2 µM; in experiment [5], above 100 µM; in experiment [6] it was 2.79 ± 0.09 µM. In addition, the “αKi (non-competitive inhibition constant)” value in experiment [2] worked out at 1.94 ± 0.01 µM. Besides, the “type of BChE inhibition” value in experiment [2] (Lineweaver-Burk analysis) is “non-competitive mechanism”. Moreover, the “% of [3H]МК-801 blockade” value in experiment [4] is 80.3 ± 6.9%.
`CCN1CCc2c(c3cc(C)ccc3n2CCC(=O)N2c3ccccc3Sc3ccccc32)C1` [C-1b]: the “% of [3H]ifenprodil blockade” value in experiment [1] was 48.1 ± 5.9%. Also, the IC50 is 74.4 ± 4 µM in experiment [1]; above 200 µM in experiment [3]; 8.5 ± 0.8 µM in experiment [4]; above 200 µM in experiment [5]; 2.04 ± 0.55 µM in experiment [6]. Besides, the “αKi (non-competitive inhibition constant)” value in experiment [2] was 1.46 ± 0.40 µM. The Ki in experiment [2] stood at 0.43 ± 0.05 µM. Besides, the “% of [3H]МК-801 blockade” value in experiment [4] is recorded as 95.7 ± 1.0%.
Consider `CN1CCc2c(c3ccccc3n2CCC(=O)N2c3ccccc3Sc3ccccc32)C1` [C-1d], for which the “% of [3H]ifenprodil blockade” value in experiment [1] is 60.1 ± 1.4%. Also, the IC50 in experiment [1] was 23.4 ± 0.7 µM; in experiment [3] it was above 200 µM; in experiment [4], 18.5 ± 0.9 µM; in experiment [5] it was above 200 µM; in experiment [6], 1.07 ± 0.12 µM. Besides, the “αKi (non-competitive inhibition constant)” value in experiment [2] was 1.64 ± 0.20 µM. Further, the Ki in experiment [2] worked out at 0.37 ± 0.01 µM. In addition, the “% of [3H]МК-801 blockade” value in experiment [4] is listed as 74.9 ± 1.1%.
